Data published in ChEMBL document CHEMBL1201862, “PubChem BioAssay data set” (2004).
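Cells were grown in 96-well plates and exposed to each compound for 48 hours at five concentrations; endpoints were interpolated linearly between bracketing concentrations, or set to the highest concentration if not reached. GI50 = concentration required for 50% inhibition of growth.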 Activity calls are given as the source filed them. No stated cut-off is given here; in the data, active = GI50 up to about 1.1 µM and inactive = higher.

Columns and labels:
Experiment in all cases: growth of human tumour cells (NCI), 48 h
SK-OV-3 = system: SK-OV-3
SK-MEL-5 = system: SK-MEL-5
U-251 = system: U-251
DU-145 = system: DU-145
OVCAR-8 = system: OVCAR-8
MDA-MB-435 = system: MDA-MB-435
PC-3 = system: PC-3
NCI/ADR-RES = system: NCI/ADR-RES
UACC-62 = system: UACC-62
A498 = system: A498
SN12C = system: SN12C
SR = system: SR
HOP-62 = system: HOP-62
HT-29 = system: HT-29
SNB-19 = system: SNB-19
HL-60 = system: HL-60
COLO 205 = system: COLO 205
HCT-15 = system: HCT-15
T47D = system: T47D
NCI-H226 = system: NCI-H226
TK-10 = system: TK-10
SK-MEL-2 = system: SK-MEL-2
Hs-578T = system: Hs-578T
NCI-H522 = system: NCI-H522
CAKI-1 = system: CAKI-1
MCF7 = system: MCF7
UACC-257 = system: UACC-257
MDA-N = system: MDA-N
KM12 = system: KM12
SF-539 = system: SF-539
M14 = system: M14
IGROV-1 = system: IGROV-1
A549 = system: A549
OVCAR-4 = system: OVCAR-4
NCI-H23 = system: NCI-H23
HCT-116 = system: HCT-116
786-0 = system: 786-0
OVCAR-5 = system: OVCAR-5
K562 = system: K562
ACHN = system: ACHN
RPMI-8226 = system: RPMI-8226
NCI-H460 = system: NCI-H460
SW-620 = system: SW-620
BT-549 = system: BT-549
RXF 393 = system: RXF 393
SF-268 = system: SF-268
MOLT-4 = system: MOLT-4
CCRF-CEM = system: CCRF-CEM
EKVX = system: EKVX
Malme-3M = system: Malme-3M
SK-MEL-28 = system: SK-MEL-28
HCC 2998 = system: HCC 2998
OVCAR-3 = system: OVCAR-3
MDA-MB-231 = system: MDA-MB-231
LOX IMVI = system: LOX IMVI
SF-295 = system: SF-295

Measured: GI50

Clc1ccc(Cl)c(NNc2cc(Cl)ccc2Cl)c1
3.61 µM: HCT-15
inactive: SK-OV-3 5.79 µM | SK-MEL-5 2.76 µM | U-251 7.59 µM | DU-145 5.37 µM | OVCAR-8 7.64 µM | MDA-MB-435 8.09 µM | PC-3 3.66 µM | NCI/ADR-RES 2.92 µM | UACC-62 3.88 µM | A498 > 10 µM | SN12C 4.07 µM | SR 8.81 µM | HOP-62 > 10 µM | HT-29 > 10 µM | SNB-19 9.79 µM | HL-60 > 10 µM | COLO 205 > 10 µM | T47D 4.28 µM | NCI-H226 > 10 µM | TK-10 4.76 µM | SK-MEL-2 2.83 µM | Hs-578T > 10 µM | NCI-H522 3.68 µM | CAKI-1 > 10 µM | MCF7 7.74 µM | UACC-257 > 10 µM | MDA-N 5.57 µM | KM12 > 10 µM | SF-539 > 10 µM | M14 > 10 µM | IGROV-1 4.67 µM | A549 6.67 µM | OVCAR-4 4.95 µM | NCI-H23 2.82 µM | HCT-116 3.84 µM | 786-0 > 10 µM | OVCAR-5 > 10 µM | K562 > 10 µM | ACHN 2.84 µM | RPMI-8226 4.3 µM | NCI-H460 3.66 µM | SW-620 > 10 µM | BT-549 5.19 µM | RXF 393 6.22 µM | SF-268 4.69 µM | MOLT-4 > 10 µM | CCRF-CEM 3.63 µM | EKVX 4.45 µM | Malme-3M 3.82 µM | SK-MEL-28 6.38 µM | HCC 2998 7.03 µM | OVCAR-3 3.08 µM | MDA-MB-231 > 10 µM | LOX IMVI 3.57 µM | SF-295 > 10 µM
